Values quoted from earlier work in US7851424B2, “Antimicrobial hand wash” (GOJO Industries, Inc., priority 2006, dated 2010).

Oc1cc(Cl)ccc1Oc1ccc(Cl)cc1Cl [Triclosan, 2,4,4′-trichloro-2′hydroxy-diphenylether]
pKa: 7.4
